One experiment concerns the target CDK12/Cyclin K (Homo sapiens, UniProt Q9NYV4).
Experiment [1] addresses Cyclin-dependent kinase 13 (Homo sapiens, UniProt Q14004).
In experiment [2] the target is Cyclin-dependent kinase 13/Cyclin-K (Homo sapiens, UniProt Q14004).
For experiment [3], the target named is T1, Cyclin-dependent kinase 7 (Homo sapiens, UniProt P50613). Kind of experiment: biochemical.
For experiment [4], the target named is T1, Cyclin-dependent kinase 7.
Experiment [5] concerns the target Cyclin-dependent kinase 1 (Homo sapiens, UniProt P06493).
Experiment [6] concerns the target T2, Cyclin-dependent kinase 2 (Homo sapiens, UniProt P24941).
In experiment [7] the target is T3, Cyclin-dependent kinase 4 (Homo sapiens, UniProt P11802).
Experiment [8] deals with T4, Cyclin-dependent kinase 6 (Homo sapiens, UniProt Q00534).
For experiment [9], the target named is T5, Cyclin-dependent kinase 9 (Homo sapiens, UniProt P50750).
The target in experiment [10] is T2, Cyclin-dependent kinase 2. Kind of experiment: Binding affinity to CDK2 (unknown origin) extracted from insect cells assessed as inhibition constant. The format is cell-free, Insect cell.
The target in experiment [11] is T3, Cyclin-dependent kinase 4. Nature of the experiment: Binding affinity to CDK4 (unknown origin) assessed as inhibition constant.
Experiment [12] has as its target T4, Cyclin-dependent kinase 6. Nature of the experiment: Binding affinity to CDK6 (unknown origin) assessed as inhibition constant.
Experiment [13] deals with T5, Cyclin-dependent kinase 9. Kind of experiment: Binding affinity to CDK9 (unknown origin) assessed as inhibition constant.
The target in experiment [14] is T5, Cyclin-dependent kinase 9. The source holds these as a separate data set.
Experiment [15] concerns the target T2, Cyclin-dependent kinase 2. This is another data set of the same source.
Experiment [16] deals with T3, Cyclin-dependent kinase 4. This is another data set of the same source.
The target of experiment [17] is T4, Cyclin-dependent kinase 6. This is another data set of the same source.
For experiment [18], the target named is Cyclin-dependent kinase 5 (Homo sapiens, UniProt Q00535).

SMILES strings stand for the structures.

T4 sequence (Q00534 whole entry): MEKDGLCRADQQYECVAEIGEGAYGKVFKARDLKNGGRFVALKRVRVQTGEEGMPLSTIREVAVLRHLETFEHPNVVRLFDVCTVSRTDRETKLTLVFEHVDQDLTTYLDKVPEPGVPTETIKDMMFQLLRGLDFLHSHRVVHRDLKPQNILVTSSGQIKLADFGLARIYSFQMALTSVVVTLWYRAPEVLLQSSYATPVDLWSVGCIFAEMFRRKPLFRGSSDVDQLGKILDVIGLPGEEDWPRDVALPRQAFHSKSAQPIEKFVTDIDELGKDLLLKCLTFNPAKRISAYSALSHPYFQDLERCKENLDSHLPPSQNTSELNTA
T3 sequence (P11802 whole entry): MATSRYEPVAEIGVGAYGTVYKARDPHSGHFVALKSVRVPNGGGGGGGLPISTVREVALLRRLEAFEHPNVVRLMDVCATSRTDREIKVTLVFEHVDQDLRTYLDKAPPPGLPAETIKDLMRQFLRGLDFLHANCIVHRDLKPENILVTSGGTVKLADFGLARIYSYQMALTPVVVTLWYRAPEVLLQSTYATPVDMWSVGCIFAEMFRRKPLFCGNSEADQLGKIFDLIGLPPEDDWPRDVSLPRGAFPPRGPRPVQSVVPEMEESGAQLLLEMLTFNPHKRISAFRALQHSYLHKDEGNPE
T5 sequence (P50750 whole entry): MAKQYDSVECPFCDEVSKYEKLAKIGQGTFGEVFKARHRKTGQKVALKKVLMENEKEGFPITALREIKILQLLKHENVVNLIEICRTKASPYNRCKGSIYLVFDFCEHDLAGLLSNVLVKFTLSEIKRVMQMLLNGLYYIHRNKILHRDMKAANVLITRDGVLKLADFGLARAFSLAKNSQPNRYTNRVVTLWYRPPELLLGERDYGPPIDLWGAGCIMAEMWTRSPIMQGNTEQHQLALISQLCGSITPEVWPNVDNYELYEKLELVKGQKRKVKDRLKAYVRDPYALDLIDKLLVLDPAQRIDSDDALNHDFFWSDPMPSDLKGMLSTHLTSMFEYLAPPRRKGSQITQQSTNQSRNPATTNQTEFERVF
T1 sequence (P50613 whole entry): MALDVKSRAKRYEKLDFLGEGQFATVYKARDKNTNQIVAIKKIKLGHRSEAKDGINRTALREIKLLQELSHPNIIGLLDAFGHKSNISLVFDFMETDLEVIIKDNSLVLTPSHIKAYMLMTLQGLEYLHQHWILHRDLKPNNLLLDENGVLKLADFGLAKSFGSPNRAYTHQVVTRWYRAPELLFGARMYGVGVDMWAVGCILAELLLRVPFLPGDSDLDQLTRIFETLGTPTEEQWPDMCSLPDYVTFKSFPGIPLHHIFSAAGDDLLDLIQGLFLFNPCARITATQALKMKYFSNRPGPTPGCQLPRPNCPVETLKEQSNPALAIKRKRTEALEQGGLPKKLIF
Sequence of CDK12/Cyclin K (O75909 whole entry): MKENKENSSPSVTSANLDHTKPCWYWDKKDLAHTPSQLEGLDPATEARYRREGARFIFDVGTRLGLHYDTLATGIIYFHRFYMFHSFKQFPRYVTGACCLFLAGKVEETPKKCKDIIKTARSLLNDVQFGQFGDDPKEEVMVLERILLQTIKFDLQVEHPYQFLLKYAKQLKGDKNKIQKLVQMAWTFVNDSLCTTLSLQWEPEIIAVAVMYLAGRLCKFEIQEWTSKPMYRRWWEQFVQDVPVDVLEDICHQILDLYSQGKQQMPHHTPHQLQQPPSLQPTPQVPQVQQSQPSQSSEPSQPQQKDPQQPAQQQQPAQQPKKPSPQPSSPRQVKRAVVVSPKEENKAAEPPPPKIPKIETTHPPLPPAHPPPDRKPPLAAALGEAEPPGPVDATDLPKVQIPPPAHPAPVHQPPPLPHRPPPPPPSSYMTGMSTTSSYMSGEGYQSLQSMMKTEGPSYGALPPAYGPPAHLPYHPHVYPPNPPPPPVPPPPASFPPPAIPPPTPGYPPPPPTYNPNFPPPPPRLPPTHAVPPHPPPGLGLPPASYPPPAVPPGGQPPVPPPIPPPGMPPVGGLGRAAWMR
Sequence of CDK12/Cyclin K (Q9NYV4 whole entry): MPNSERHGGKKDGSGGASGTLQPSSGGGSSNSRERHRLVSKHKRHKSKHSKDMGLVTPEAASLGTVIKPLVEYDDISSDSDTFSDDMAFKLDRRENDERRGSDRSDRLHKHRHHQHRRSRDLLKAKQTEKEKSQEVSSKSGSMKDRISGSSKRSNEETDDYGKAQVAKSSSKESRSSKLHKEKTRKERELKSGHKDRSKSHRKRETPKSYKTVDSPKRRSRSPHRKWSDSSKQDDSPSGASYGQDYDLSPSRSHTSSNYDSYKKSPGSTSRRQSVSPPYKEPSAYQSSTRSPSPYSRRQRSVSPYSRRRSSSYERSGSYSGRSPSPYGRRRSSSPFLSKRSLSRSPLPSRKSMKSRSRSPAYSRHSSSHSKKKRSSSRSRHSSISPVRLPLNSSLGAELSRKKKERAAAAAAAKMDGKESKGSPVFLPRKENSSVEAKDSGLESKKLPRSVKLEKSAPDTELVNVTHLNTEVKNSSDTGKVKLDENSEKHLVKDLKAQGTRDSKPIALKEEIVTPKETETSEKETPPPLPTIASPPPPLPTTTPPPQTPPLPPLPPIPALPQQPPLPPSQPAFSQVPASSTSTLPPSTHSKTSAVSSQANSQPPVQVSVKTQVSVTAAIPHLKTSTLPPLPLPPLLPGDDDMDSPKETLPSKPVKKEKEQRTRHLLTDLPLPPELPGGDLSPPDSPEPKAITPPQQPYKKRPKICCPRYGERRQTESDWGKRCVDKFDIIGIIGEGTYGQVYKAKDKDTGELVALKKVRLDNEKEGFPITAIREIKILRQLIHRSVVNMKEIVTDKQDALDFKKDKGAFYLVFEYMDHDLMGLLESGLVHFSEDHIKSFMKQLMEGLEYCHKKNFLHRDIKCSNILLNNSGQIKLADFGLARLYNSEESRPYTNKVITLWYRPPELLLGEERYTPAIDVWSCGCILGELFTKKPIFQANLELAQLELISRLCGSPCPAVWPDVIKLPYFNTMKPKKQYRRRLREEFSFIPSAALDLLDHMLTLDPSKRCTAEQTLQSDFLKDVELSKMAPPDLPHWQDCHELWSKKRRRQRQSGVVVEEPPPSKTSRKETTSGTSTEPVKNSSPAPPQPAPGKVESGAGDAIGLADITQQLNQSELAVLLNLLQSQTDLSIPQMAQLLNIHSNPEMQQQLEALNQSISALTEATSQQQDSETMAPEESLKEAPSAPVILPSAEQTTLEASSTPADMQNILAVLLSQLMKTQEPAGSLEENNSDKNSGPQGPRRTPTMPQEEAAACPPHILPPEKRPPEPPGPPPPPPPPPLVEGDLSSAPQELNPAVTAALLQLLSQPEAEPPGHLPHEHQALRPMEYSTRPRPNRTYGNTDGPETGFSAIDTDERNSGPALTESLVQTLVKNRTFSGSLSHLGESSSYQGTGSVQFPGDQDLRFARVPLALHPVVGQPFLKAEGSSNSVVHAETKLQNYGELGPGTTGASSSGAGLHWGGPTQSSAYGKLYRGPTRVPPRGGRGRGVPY
Sequence of Cyclin-dependent kinase 1 (P06493 whole entry): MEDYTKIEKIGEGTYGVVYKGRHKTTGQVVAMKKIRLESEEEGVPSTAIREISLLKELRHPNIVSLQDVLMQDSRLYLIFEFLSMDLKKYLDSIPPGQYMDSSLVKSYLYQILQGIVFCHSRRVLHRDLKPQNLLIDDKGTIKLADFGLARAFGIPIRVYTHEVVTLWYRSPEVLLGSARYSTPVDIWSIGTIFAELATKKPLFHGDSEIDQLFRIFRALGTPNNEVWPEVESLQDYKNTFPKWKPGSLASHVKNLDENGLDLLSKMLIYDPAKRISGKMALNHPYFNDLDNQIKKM
Sequence of Cyclin-dependent kinase 5 (Q00535 whole entry): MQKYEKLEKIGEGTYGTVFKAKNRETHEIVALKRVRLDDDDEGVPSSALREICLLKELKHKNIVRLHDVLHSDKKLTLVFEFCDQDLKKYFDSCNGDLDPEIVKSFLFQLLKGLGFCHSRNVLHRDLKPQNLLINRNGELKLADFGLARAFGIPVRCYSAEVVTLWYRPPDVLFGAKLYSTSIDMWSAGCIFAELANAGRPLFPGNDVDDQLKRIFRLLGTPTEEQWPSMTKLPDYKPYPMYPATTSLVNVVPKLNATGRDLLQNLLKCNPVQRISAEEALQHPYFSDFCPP

In the case of `CC(C)c1nn(-c2c(Cl)cccc2Cl)c2nc(Cc3ccc(OCCO)cc3)[nH]c(=O)c12`, the EC50 (usually the concentration at which the effect is half-maximal) at CDK12/Cyclin K turned out to be 12 nM. As to `CN(C)C/C=C/C(=O)Nc1ccc(C(=O)Nc2cccc(Nc3ncc(Cl)c(-c4c[nH]c5ccccc45)n3)c2)cc1`, the IC50 (commonly the concentration at which inhibition is half-maximal) in experiment [1] worked out at 620 nM. In turn, `CN(C)C/C=C/C(=O)Nc1ccc(C(=O)N2CCC[C@@H](Nc3ncc(Cl)c(-c4c[nH]c5ccccc45)n3)C2)cc1` displayed an IC50 in [2] of 690 nM. With `Clc1cnc(N[C@H]2CCCNC2)nc1-c1c[nH]c2ccccc12`, the IC50 in [3] was found to be 0.33 nM. Turning to `CN(C)C/C=C/C(=O)Nc1ccc(C(=O)N[C@@]2(C)CCC[C@@H](Nc3ncc(Cl)c(-c4c[nH]c5ccccc45)n3)C2)nc1`, in experiment [4], the midpoint of inhibition, the IC50, lay at 80 nM. With `Cn1cc(-n2cnc3c(NCc4nc5cc(Cl)c(Cl)cc5[nH]4)nc(N4CCOCC4)nc32)cn1`, the 50% inhibitory concentration (IC50) is less than 10000 nM in experiment [5], greater than 10000 nM in experiment [6] and greater than 10000 nM in [7]. Besides, the Kd in experiment [8] and in [9] was greater than 10000 nM in each case.

Consider `CC(=O)c1c(C)c2cnc(NC3CCN(S(C)(=O)=O)CC3)nc2n(C2CCCC2)c1=O`, for which the Ki (usually the dissociation constant of the complex between target and ligand, obtained from inhibition or displacement) in experiment [10] was 5.9 nM; in [11] it was 0.2 nM; in experiment [12] it was 0.2 nM; in [13] it was 9.6 nM. Take `N[C@H]1CCN(c2c3c(nc4ccc(-c5ccnc(NC(=O)C6CC6)c5)cc24)CCCC3)C1`: the IC50 in experiment [14] is 2 nM.

`N[C@H]1CCN(c2c3c(nc4ccc(-c5ccncc5)cc24)CCCC3)C1`: the IC50 is 8 nM in [14] and greater than 500 nM in experiment [15]. `CC(C)n1cnc2c(NCc3nc4cc(Cl)c(Cl)cc4[nH]3)nc(N3CCOCC3)nc21` showed an EC50 on CDK12/Cyclin K of 9 nM. As for `CC(C)c1cnn2c(NCc3ccccc3)cc(NC[C@H]3CCNC[C@@H]3O)nc12` [CT-7001], the IC50 in experiment [16], in [17] and in experiment [18] was greater than 9400 nM throughout.
